These results are taken from the NIST ThermoML archive (doi:10.1016/j.fluid.2011.11.023).

The conditions of the data set: Crystal; visual observation.

Numbers after ± are expanded uncertainties.

Regarding `Nc1cccnc1` [β-aminopyridine], the Normal melting temperature is 64.50 ± 0.5 °C.
